Laboratory results reported in US20010038822A1, “Melanotropin analogs for potential radiopharmaceuticals for diagnosis and treatment of melanoma” (priority 1998, published 2001).
Read-outs that look alike come from different tables or passages of the source. Positions of bridges follow the written chain, without caps; N, C: chain ends. Non-standard residues stand in square brackets, D forms with d. Residues, ends and D or L forms follow the SMILES beside them.

Experiments:
[1] = Stabilities of tracer level complexes under challenge (10 mM cysteine / 0.05M phosphate); assay type: physicochemical
Experimental: ^99mTcO4^− was obtained from a ^99Mo/^99mTc generator produced by Mallinckrodt, Inc. ^188Re was obtained from a ^188W/^188Re generator produced by the University of Missouri research reactor. Radiolabeled peptides were prepared by substitution onto either ^99mTc- or ^188Re-glucoheptonate. For ^188Re complexes, 500 μL of generator eluant was added to a tube containing 50 mg Na-glucoheptonate and 10 mg SnCl2.2H2O dissolved in 200 μL N2-purged 5% disodium-EDTA and heated at 70-80° C. for 0.5 hour. 50 μL of a 1 mg/mL peptide solution was then added, the pH was adjusted to 7-8 with 0.5 N NaOH, and the mixture was allowed to incubate for 90 minutes. at 70-80° C. Syntheses of ^99mTc-labeled peptides differed only in that they were carried out at 25° C. using a 10-fold lower concentration of SnCl2.2H2O.

[2] = system: B16F1 murine melanoma cells; assay type: cell-based
Experimental: Peptide bioactivity was determined by measuring melanin released into cell culture media in an in vitro assay using B16F1 murine melanoma cells (Siegrist, W., 1986). Cells were incubated with various concentrations of peptide and assayed for melanin production by measuring the absorbance of the culture media at 405 nm. Absorbance values were compared to a standard curve obtained using synthetic melanin from Sigma. The standard curve was linear over the experimental range of absorbance values.

[3] = target: T1, α-MSH receptor on B16-F1 murine melanoma cells (Mus musculus, UniProt Q01727); assay: Competitive receptor binding assay with ^125I-[Nle^4, D-Phe^7]-α-MSH
T1 construct: endogenous in cells; host or cells: B16-F1 murine melanoma cells
Experimental: Quantitative receptor binding assays were carried out following a previously described method (Siegrist W., 1988; Sahm, U. G., 1994). Cells were seeded at a density of 5×10^5 cells per well in 24 well tissue culture plates and exposed to varying concentrations of peptides on 0.5 mL of binding media (25 mM HEPES/NaOH pH=7.4, 0.2% BSA, 0.3 mM 1,10-phenanthroline, and approximately 100,000 CPM of ^125I-[Nle^4, D-Phe^7]-α-MSH) (36) at 4° C. for 8 hours. The cells were rinsed with PBS, lysed with 1 M NaOH and counted in a 1275 minigamma gamma counter from LKB Wallac.

T1 sequence (Q01727 whole entry): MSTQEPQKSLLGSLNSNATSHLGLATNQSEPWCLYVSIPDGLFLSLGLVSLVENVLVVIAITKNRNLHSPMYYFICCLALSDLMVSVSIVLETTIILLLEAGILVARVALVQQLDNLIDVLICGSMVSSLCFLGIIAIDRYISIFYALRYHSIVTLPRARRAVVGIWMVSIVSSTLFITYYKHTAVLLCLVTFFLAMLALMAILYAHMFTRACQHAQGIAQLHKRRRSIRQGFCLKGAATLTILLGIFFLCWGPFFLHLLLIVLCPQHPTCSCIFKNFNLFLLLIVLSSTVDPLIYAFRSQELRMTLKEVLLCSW

CC(=O)N[C@@H](CS)C(=O)N[C@@H](CCC(=O)O)C(=O)N[C@@H](Cc1c[nH]cn1)C(=O)N[C@H](Cc1ccccc1)C(=O)N[C@@H](CCCNC(=N)N)C(=O)N[C@@H](Cc1c[nH]c2ccccc12)C(=O)N[C@@H](CS)C(=O)N[C@@H](CCCCN)C(=O)N1CCC[C@H]1C(=O)N[C@H](C(N)=O)C(C)C (188Re complex, metal not drawn) [^188ReMSH] (Ac-CEH[dF]RWCKPV-NH2)
Stability of tracer level complex ([1]; 10 mM Cysteine challenge, 4 hrs): 48.9%
Stability of tracer level complex ([1]; 10 mM Cysteine challenge, 24 hrs): 34.0%
Stability of tracer level complex ([1]; 0.05M Phosphate challenge, 4 hrs): 90.3%
Stability of tracer level complex ([1]; 0.05M Phosphate challenge, 24 hrs): 66.4%
half-life ([1]; 0.05M phosphate with 10 mM cysteine, in competition with 10 mM free cysteine, read-out: t½ (converted)): ~240 min

CC(=O)N[C@H]1CSSC[C@@H](C(=O)N[C@@H](CCCCN)C(=O)N2CCC[C@H]2C(=O)N[C@H](C(N)=O)C(C)C)NC(=O)[C@H](Cc2c[nH]c3ccccc23)NC(=O)[C@H](CCCNC(=N)N)NC(=O)[C@@H](Cc2ccccc2)NC(=O)[C@H](Cc2c[nH]cn2)NC(=O)[C@H](CCC(=O)O)NC1=O [APOMSH, NA-Cys-Glu-His-D-Phe-Arg-Trp-Cys-Lys-Pro-Val-NH2, reference compound] (Ac-CEH[dF]RWCKPV-NH2; disulfide 1-7)
EC50 [2]: 0.026 nM
Ki ([3]; B16-F1 murine melanoma cells, read-out: Ki): 0.68 nM

rhenium complex of NAc-Cys-Cys-Glu-His-D-Phe-Arg-Trp-Cys-Lys-Pro-Val-NH2, APOMSH analog with additional N-terminal Cys [ReCCMSH]
EC50 ([2]; B16-F1 murine melanoma cells, read-out: EC50 melanin synthesis): 0.035 nM
ability to stimulate melanin production ([2]; compared with APOMSH): almost identical to APOMSH
receptor binding affinity higher than that of ReMSH [3]: approximately 25 fold
Ki ([3]; read-out: receptor binding affinity): 2.9 nM
